Measurements reported in patent US20250011313A1, “CCR6 RECEPTOR MODULATORS” (Idorsia Pharmaceuticals Ltd, priority 2021, published 2025).

Target: T1, human CCR6 (Homo sapiens, UniProt P51684)
T1 construct: expressed in transfected cells; host or cells: HEK-293
T1 sequence (P51684 1-374): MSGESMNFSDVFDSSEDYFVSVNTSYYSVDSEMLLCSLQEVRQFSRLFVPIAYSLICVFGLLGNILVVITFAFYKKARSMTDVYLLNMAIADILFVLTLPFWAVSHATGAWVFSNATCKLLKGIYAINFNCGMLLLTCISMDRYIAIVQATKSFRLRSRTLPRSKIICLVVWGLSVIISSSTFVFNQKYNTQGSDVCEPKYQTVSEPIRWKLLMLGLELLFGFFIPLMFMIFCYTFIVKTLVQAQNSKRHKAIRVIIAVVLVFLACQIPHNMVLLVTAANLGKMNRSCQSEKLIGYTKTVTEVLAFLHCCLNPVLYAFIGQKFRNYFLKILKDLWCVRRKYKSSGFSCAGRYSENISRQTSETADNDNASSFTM
Assay: FLIPR assay (calcium flux, inhibition of CCL20 agonist response)
Type: cell-based
Conditions: HEK-293 cells expressing human CCR6; agonist CCL20 10 nM; 30 min preincubation; mean values if determined several times
Method: FLIPR assay: The bioactivity of compounds is tested in a fluorometric imaging plate reader (FLIPR: Molecular Devices) using engineered HEK-293 cells expressing the human CCR6 (GenBank: AY242126). Frozen cells are plated on Poly-L-Lysine precoated 384-well plates 2 days prior to bioassay in DMEM medium supplemented with 10% FCS and 1% Penicillin-Streptomycin. At the day of bioassay, cell supernatant is discarded and cells are dye loaded for 30 minutes at room temperature in the dark with Fluo-8-AM (Focus Biomolecules) in Hanks Balanced Salt Solution (Gibco), buffered with 20 mM Hepes at pH 6.75 and supplemented with 0.05% BSA. This buffer, but lacking the dye, is also used for washing and compound dilution steps (assay buffer). Cells are washed free of excess dye with a wash-station (Biotek), leaving 40 microliter of assay buffer at the end. Cells were incubated for 15 minutes at room temperature in the dark, before adding compounds. Stock solutions of test compounds are made up at a concentration of 10 mM in DMSO, and serially diluted first in DMSO and then transferred in assay buffer to concentrations required for inhibition dose response curves. After a 45 minute incubation period in assay buffer at room temperature, 10 microliters of each compound dilution are transferred from a compound plate to the plate containing the recombinant cells in the FLIPR instrument according to the manufacturer's instructions. After cells and compounds were preincubated for 30 minutes at room temperature in the dark, 10 microliter agonist CCL20 (Peprotech) at a final concentration of 10 nM is added, again using the FLIPR instrument. Changes in fluorescence are monitored before and after addition of the test compounds and agonist. Emission peak values above base level after CCL20 addition are exported after base line subtraction. The calculated IC50 values may fluctuate depending on the daily assay performance. Fluctuations of this kind are known to those skilled in the art. In the case where IC50 values have been determined several times for the same compound, mean values are given.

SMILES | IC50 [nM]
CN1CC(C)([C@](O)(c2ccc(CC(F)(F)F)cc2)c2cncc(-c3noc([C@H]4CC[C@H](O)CC4)n3)c2)C1 [Example 1, trans-4-[3-(5-{(R)-(1,3-Dimethyl-azetidin-3-yl)-hydroxy-[4-(2,2,2-trifluoro-ethyl)-phenyl]-methyl}-pyridin-3-yl)-[1,2,4]oxadiazol-5-yl]-cyclohexanol] | 83
CCC(=O)N[C@H]1CC[C@H](c2nc(-c3cncc([C@@](O)(c4ccc(C(C)C)cc4)C4(C)CN(C)C4)c3)no2)CC1 [Example 7, trans-N-[4-(3-{5-[(R)-(1,3-Dimethyl-azetidin-3-yl)-hydroxy-(4-isopropyl-phenyl)-methyl]-pyridin-3-yl}-[1,2,4]oxadiazol-5-yl)-cyclohexyl]-propionamide] | 78.8
CC(=O)N1CC2(CC(c3nc(-c4cncc([C@@](O)(c5ccc(C(C)C)cc5)C5(C)CN(C)C5)c4)no3)C2)C1 [Example 6, 1-[6-(3-{5-[(R)-(1,3-Dimethyl-azetidin-3-yl)-hydroxy-(4-isopropyl-phenyl)-methyl]-pyridin-3-yl}-[1,2,4]oxadiazol-5-yl)-2-aza-spiro[3.3]hept-2-yl]-ethanone] | 111
CC(C)c1ccc([C@](O)(c2cncc(C#CC(C)(O)c3ccncn3)c2)C2(C)CN(C)C2)cc1 (single isomer, unassigned) [Example 10, (R)- or (S)-4-{5-[(R)-(1,3-Dimethyl-azetidin-3-yl)-hydroxy-(4-isopropyl-phenyl)-methyl]-pyridin-3-yl}-2-pyrimidin-4-yl-but-3-yn-2-ol] | 71.5
CC(=O)N[C@H]1CC[C@H](c2nc(-c3cncc([C@@](O)(c4ccc(CC(F)(F)F)cc4)C4(C)CN(C)C4)c3)no2)CC1 [Example 16, N-{4-[3-(5-{(R)-(1,3-Dimethyl-azetidin-3-yl)-hydroxy-[4-(2,2,2-trifluoro-ethyl)-phenyl]-methyl}-pyridin-3-yl)-[1,2,4]oxadiazol-5-yl]-trans-cyclohexyl}-acetamide] | 226
CN1CC(C)([C@](O)(c2ccc(CC(F)(F)F)cc2)c2cncc(-c3nc(C(C)(C)CO)no3)c2)C1 [Example 5, 2-[5-(5-{(R)-(1,3-Dimethyl-azetidin-3-yl)-hydroxy-[4-(2,2,2-trifluoro-ethyl)-phenyl]-methyl}-pyridin-3-yl)-[1,2,4]oxadiazol-3-yl]-2-methyl-propan-1-ol] | 144
CN1CC(C)([C@](O)(c2ccc(CC(F)(F)F)cc2)c2cncc(-c3noc(C45CCC(C(N)=O)(CC4)CC5)n3)c2)C1 [Example 15, 4-[3-(5-{(R)-(1,3-Dimethyl-azetidin-3-yl)-hydroxy-[4-(2,2,2-trifluoro-ethyl)-phenyl]-methyl}-pyridin-3-yl)-[1,2,4]oxadiazol-5-yl]-bicyclo[2.2.2]octane-1-carboxylic acid amide] | 65.3
CC(=O)NC12CC(c3nc(-c4cncc([C@@](O)(c5ccc(C(C)C)cc5)C5(C)CN(C)C5)c4)no3)(C1)C2 [Example 3, N-[3-(3-{5-[(R)-(1,3-Dimethyl-azetidin-3-yl)-hydroxy-(4-isopropyl-phenyl)-methyl]-pyridin-3-yl}-[1,2,4]oxadiazol-5-yl)-bicyclo[1.1.1]pent-1-yl]-acetamide] | 55.7
CN1CC(C)([C@](O)(c2ccc(CC(F)(F)F)cc2)c2cncc(-c3noc(C45CC(CO)(C4)C5)n3)c2)C1 [Example 2, (R)-(1,3-Dimethyl-azetidin-3-yl)-{5-[5-(3-hydroxymethyl-bicyclo[1.1.1]pent-1-yl)-[1,2,4]oxadiazol-3-yl]-pyridin-3-yl}-[4-(2,2,2-trifluoro-ethyl)-phenyl]-methanol] | 140
CN1CC(C)([C@](O)(c2ccc(CC(F)(F)F)cc2)c2cncc(-c3nc(C45CC(CO)(C4)C5)no3)c2)C1 [Example 9, (R)-(1,3-Dimethyl-azetidin-3-yl)-{5-[3-(3-hydroxymethyl-bicyclo[1.1.1]pent-1-yl)-[1,2,4]oxadiazol-5-yl]-pyridin-3-yl}-[4-(2,2,2-trifluoro-ethyl)-phenyl]-methanol] | 146

Stronger by IC50, values ahead:

IC50 [nM] | SMILES
52.2 | CC(=O)NC1CCC(c2nc(-c3cncc([C@@](O)(c4ccc(C(C)C)cc4)C4(C)CN(C)C4)c3)no2)CC1 (single isomer, unassigned) [Example 8, cis- or trans-N-[4-(3-{5-[(R)-(1,3-Dimethyl-azetidin-3-yl)-hydroxy-(4-isopropyl-phenyl)-methyl]-pyridin-3-yl}-[1,2,4]oxadiazol-5-yl)-cyclohexyl]-acetamide]
25.4 | CC(C)c1ccc([C@](O)(c2cncc(C#C[C@H]3CC[C@@H](O)CC3)c2)C2(C)CN(C)C2)cc1 [Example 12, cis-4-{5-[(R)-(1,3-Dimethyl-azetidin-3-yl)-hydroxy-(4-isopropyl-phenyl)-methyl]-pyridin-3-ylethynyl}-cyclohexanol]
28.7 | CC(C)c1ccc([C@](O)(c2cncc(C#C[C@H]3CC[C@H](O)CC3)c2)C2(C)CN(C)C2)cc1 [Example 11, trans-4-{5-[(R)-(1,3-Dimethyl-azetidin-3-yl)-hydroxy-(4-isopropyl-phenyl)-methyl]-pyridin-3-ylethynyl}-cyclohexanol]
23.9 | CC(C)c1ccc([C@](O)(c2cncc(-c3noc(C45CCC(O)(CC4)CC5)n3)c2)C2(C)CN(C)C2)cc1 [Example 4, 4-(3-{5-[(R)-(1,3-Dimethyl-azetidin-3-yl)-hydroxy-(4-isopropyl-phenyl)-methyl]-pyridin-3-yl}-[1,2,4]oxadiazol-5-yl)-bicyclo[2.2.2]octan-1-ol]
46.3 | CC(C)c1ccc([C@](O)(c2cncc(-c3noc(C4CCC(C(N)=O)CC4)n3)c2)C2(C)CN(C)C2)cc1 (stereo partly drawn) [Example 14, 4-(3-{5-[(R)-(1,3-Dimethyl-azetidin-3-yl)-hydroxy-(4-isopropyl-phenyl)-methyl]-pyridin-3-yl}-[1,2,4]oxadiazol-5-yl)-cyclohexanecarboxylic acid amide]
37.5 | CC(C)c1ccc([C@](O)(c2cncc(-c3noc(C45CCC(C(N)=O)(CC4)CC5)n3)c2)C2(C)CN(C)C2)cc1 [Example 13, 4-(3-{5-[(R)-(1,3-Dimethyl-azetidin-3-yl)-hydroxy-(4-isopropyl-phenyl)-methyl]-pyridin-3-yl}-[1,2,4]oxadiazol-5-yl)-bicyclo[2.2.2]octane-1-carboxylic acid amide]
